Experimental data: the NIST ThermoML archive (doi:10.1021/je900387e)

Test: xn = mol fraction of the nth substance listed
Details: Liquid, Pycnometric method

Cn1ccnc1 [1-methylimidazole] + O=C=O
Details | mass density [kg/m3]
308.2 K, 7790 kPa, x1 = 0.0247 | 745
308.2 K, 7860 kPa, x1 = 0.0102 | 638
308.2 K, 7870 kPa, x1 = 0.0102 | 640
308.2 K, 7900 kPa, x1 = 0.0102 | 646
308.2 K, 7940 kPa, x1 = 0.0102 | 652
308.2 K, 7950 kPa, x1 = 0.0102 | 655
308.2 K, 7970 kPa, x1 = 0.0247 | 755
308.2 K, 7980 kPa, x1 = 0.0102 | 661
308.2 K, 8020 kPa, x1 = 0.0102 | 667
308.2 K, 8080 kPa, x1 = 0.0102 | 676
308.2 K, 8160 kPa, x1 = 0.0102 | 686
308.2 K, 8200 kPa, x1 = 0.0247 | 766
308.2 K, 8260 kPa, x1 = 0.0102 | 696
308.2 K, 8380 kPa, x1 = 0.0102 | 706
308.2 K, 8470 kPa, x1 = 0.0247 | 777
308.2 K, 8520 kPa, x1 = 0.0102 | 716
308.2 K, 8590 kPa, x1 = 0.0487 | 838
308.2 K, 8680 kPa, x1 = 0.0487 | 841
308.2 K, 8690 kPa, x1 = 0.0102 | 727
308.2 K, 8790 kPa, x1 = 0.0487 | 844
308.2 K, 8820 kPa, x1 = 0.0247 | 790
308.2 K, 8910 kPa, x1 = 0.0102 | 738
308.2 K, 8910 kPa, x1 = 0.0487 | 847
308.2 K, 9040 kPa, x1 = 0.0487 | 849
308.2 K, 9150 kPa, x1 = 0.0102 | 750
308.2 K, 9150 kPa, x1 = 0.0487 | 852
308.2 K, 9250 kPa, x1 = 0.0247 | 802
308.2 K, 9290 kPa, x1 = 0.0487 | 853
308.2 K, 9440 kPa, x1 = 0.0102 | 761
308.2 K, 9450 kPa, x1 = 0.0487 | 858
308.2 K, 9600 kPa, x1 = 0.0487 | 860
308.2 K, 9750 kPa, x1 = 0.0247 | 815
308.2 K, 9750 kPa, x1 = 0.0487 | 863
308.2 K, 9800 kPa, x1 = 0.0102 | 773
308.2 K, 9850 kPa, x1 = 0.1024 | 937
308.2 K, 9920 kPa, x1 = 0.0487 | 866
308.2 K, 10030 kPa, x1 = 0.1024 | 939
308.2 K, 10130 kPa, x1 = 0.0247 | 824
308.2 K, 10200 kPa, x1 = 0.0102 | 786
308.2 K, 10360 kPa, x1 = 0.1024 | 942
308.2 K, 10560 kPa, x1 = 0.0247 | 833
308.2 K, 10630 kPa, x1 = 0.1024 | 945
308.2 K, 10700 kPa, x1 = 0.0102 | 799
308.2 K, 11000 kPa, x1 = 0.1024 | 948
308.2 K, 11070 kPa, x1 = 0.0247 | 842
308.2 K, 11250 kPa, x1 = 0.0102 | 812
308.2 K, 11310 kPa, x1 = 0.1024 | 951
308.2 K, 11620 kPa, x1 = 0.0247 | 851
308.2 K, 11710 kPa, x1 = 0.1024 | 954
308.2 K, 11920 kPa, x1 = 0.0102 | 826
308.2 K, 12010 kPa, x1 = 0.1024 | 956
308.2 K, 12240 kPa, x1 = 0.0247 | 860
308.2 K, 12460 kPa, x1 = 0.1024 | 960
308.2 K, 12590 kPa, x1 = 0.0247 | 865
308.2 K, 12610 kPa, x1 = 0.0102 | 840
308.2 K, 12820 kPa, x1 = 0.1024 | 963
308.2 K, 12940 kPa, x1 = 0.0247 | 870
308.2 K, 13250 kPa, x1 = 0.1024 | 966
308.2 K, 13310 kPa, x1 = 0.0247 | 875
308.2 K, 13440 kPa, x1 = 0.0102 | 859
308.2 K, 13690 kPa, x1 = 0.1024 | 969
308.2 K, 13720 kPa, x1 = 0.0247 | 880
308.2 K, 14140 kPa, x1 = 0.0247 | 885
308.2 K, 14140 kPa, x1 = 0.1024 | 972
308.2 K, 14560 kPa, x1 = 0.0102 | 875
308.2 K, 14570 kPa, x1 = 0.1024 | 975
308.2 K, 14610 kPa, x1 = 0.0247 | 890
308.2 K, 14990 kPa, x1 = 0.0102 | 880
308.2 K, 15060 kPa, x1 = 0.0247 | 895
308.2 K, 15080 kPa, x1 = 0.1024 | 978
308.2 K, 15430 kPa, x1 = 0.0102 | 886
308.2 K, 15540 kPa, x1 = 0.1024 | 981
308.2 K, 15600 kPa, x1 = 0.0247 | 901
308.2 K, 16080 kPa, x1 = 0.1024 | 984
308.2 K, 16570 kPa, x1 = 0.1024 | 987
308.2 K, 17250 kPa, x1 = 0.1024 | 991
308.2 K, 17650 kPa, x1 = 0.1024 | 994
308.2 K, 18340 kPa, x1 = 0.1024 | 998
308.2 K, 18880 kPa, x1 = 0.1024 | 1001
309.8 K, 8020 kPa, x1 = 0.0102 | 543
309.8 K, 8030 kPa, x1 = 0.0102 | 551
309.8 K, 8040 kPa, x1 = 0.0102 | 560
309.8 K, 8060 kPa, x1 = 0.0102 | 571
309.8 K, 8070 kPa, x1 = 0.0102 | 581
309.8 K, 8090 kPa, x1 = 0.0102 | 589
309.8 K, 8110 kPa, x1 = 0.0102 | 600
309.8 K, 8140 kPa, x1 = 0.0102 | 612
309.8 K, 8180 kPa, x1 = 0.0102 | 624
309.8 K, 8230 kPa, x1 = 0.0102 | 636
309.8 K, 8300 kPa, x1 = 0.0102 | 649
309.8 K, 8390 kPa, x1 = 0.0102 | 663
309.8 K, 8500 kPa, x1 = 0.0102 | 677
309.8 K, 8650 kPa, x1 = 0.0102 | 691
309.8 K, 8830 kPa, x1 = 0.0102 | 707
309.8 K, 9090 kPa, x1 = 0.0102 | 723
309.8 K, 9420 kPa, x1 = 0.0102 | 740
309.8 K, 9830 kPa, x1 = 0.0102 | 758
309.8 K, 10210 kPa, x1 = 0.0102 | 772
309.8 K, 10880 kPa, x1 = 0.0102 | 790
309.8 K, 11970 kPa, x1 = 0.0102 | 816
309.8 K, 12530 kPa, x1 = 0.0102 | 826
309.8 K, 13140 kPa, x1 = 0.0102 | 836
309.8 K, 13680 kPa, x1 = 0.0102 | 846
313.1 K, 8750 kPa, x1 = 0.0102 | 576
313.1 K, 8770 kPa, x1 = 0.0102 | 581
313.1 K, 8810 kPa, x1 = 0.0102 | 589
313.1 K, 8850 kPa, x1 = 0.0102 | 597
313.1 K, 8890 kPa, x1 = 0.0102 | 606
313.1 K, 8900 kPa, x1 = 0.0247 | 717
313.1 K, 8940 kPa, x1 = 0.0102 | 615
313.1 K, 8990 kPa, x1 = 0.0102 | 624
313.1 K, 9000 kPa, x1 = 0.0247 | 723
313.1 K, 9040 kPa, x1 = 0.0102 | 633
313.1 K, 9120 kPa, x1 = 0.0102 | 643
313.1 K, 9120 kPa, x1 = 0.0247 | 729
313.1 K, 9200 kPa, x1 = 0.0102 | 653
313.1 K, 9260 kPa, x1 = 0.0247 | 737
313.1 K, 9300 kPa, x1 = 0.0102 | 663
313.1 K, 9400 kPa, x1 = 0.0247 | 744
313.1 K, 9420 kPa, x1 = 0.0102 | 673
313.1 K, 9550 kPa, x1 = 0.0102 | 684
313.1 K, 9560 kPa, x1 = 0.0247 | 751
313.1 K, 9700 kPa, x1 = 0.0102 | 695
313.1 K, 9730 kPa, x1 = 0.0247 | 759
313.1 K, 9900 kPa, x1 = 0.0102 | 707
313.1 K, 9940 kPa, x1 = 0.0247 | 766
313.1 K, 10070 kPa, x1 = 0.0487 | 827
313.1 K, 10130 kPa, x1 = 0.0102 | 719
313.1 K, 10170 kPa, x1 = 0.0247 | 774
313.1 K, 10190 kPa, x1 = 0.0487 | 830
313.1 K, 10320 kPa, x1 = 0.0487 | 833
313.1 K, 10380 kPa, x1 = 0.0102 | 731
313.1 K, 10440 kPa, x1 = 0.0487 | 835
313.1 K, 10560 kPa, x1 = 0.0487 | 838
313.1 K, 10570 kPa, x1 = 0.0247 | 786
313.1 K, 10690 kPa, x1 = 0.0487 | 841
313.1 K, 10700 kPa, x1 = 0.0102 | 744
313.1 K, 10830 kPa, x1 = 0.0487 | 843
313.1 K, 10870 kPa, x1 = 0.0247 | 794
313.1 K, 10990 kPa, x1 = 0.0487 | 846
313.1 K, 11080 kPa, x1 = 0.0102 | 758
313.1 K, 11130 kPa, x1 = 0.0487 | 849
